Reference: patent publication US20020048549A1, “Radioactive transition metal nitride heterocomplex” (priority 1996, published 2002)
Where two headings read alike, the source gives them in different places.

Assay: Biodistribution of 99mTc(N)(X)(DTC)+ heterocomplexes in rats
Format: in vivo, male Spraque-Dawley rats (SD rats)
Method: The biodistribution of a ^99mTc nitride heterocomplex represented by the general formula ^99mTc(N)(X)(Y) was investigated as follows: ^99mTc nitride heterocomplexes were synthesized using DTC as a bidentate ligand Y and each of the diphosphine compounds X described below, and the biodistribution in rats of each heterocomplex was investigated.
Before being injected into rats, the contents of the vial were diluted with phosphate buffer (0.1 mol/dm^3, pH=7.06) containing 10% Tween 80 ([…]). The complexes were stable in the solutions and in human plasma for at least 6 hours.
The biodistribution was measured using male Spraque-Dawley rats (SD rats) weighing 200 to 250 g. After 24 hours fasting, the rats were put under intraperitoneal anesthesia and given an injection in the jugular vein. Then, the organs were excised from the rats at different intervals of time, washed and then weighed. In addition, blood samples were collected and then weighed. The data on the biodistribution are expressed as the mean±significant difference of the percentage of radioactivity level per gram of the organ weight based on the dose of radioactivity, (% dose/g). The measurement was carried out using groups of 5 rats each.

## CCCN1CC[P+](c2ccccc2)(c2ccccc2)[99Tc-2]2(#[N])([NH]N(C)C(SC)=[S+]2)[P+](c2ccccc2)(c2ccccc2)CC1 [^99mTc(N)(PNP1)(DTC)^+]
  Bone % dose/g: 0.244 ± 0.01 % dose/g
  Heart % dose/g: 1.236 ± 0.08 % dose/g
  Liver % dose/g: 3.593 ± 0.42 % dose/g
  Spleen % dose/g: 1.948 ± 0.20 % dose/g
0 min after injection
  Blood % dose/g: 2.125 ± 0.3 % dose/g
  Brain % dose/g: 0.143 ± 0.02 % dose/g
  Intestine % dose/g: 0.418 ± 0.03 % dose/g
  Kidney % dose/g: 2.66 ± 0.05 % dose/g
  Lung % dose/g: 5.815 ± 0.04 % dose/g
  Muscle % dose/g: 0.098 ± 0.00 % dose/g
  Stomach % dose/g: 0.337 ± 0.00 % dose/g
2 min after injection
  Blood % dose/g: 1.062 ± 0.13 % dose/g
  Bone % dose/g: 0.234 ± 0.06 % dose/g
  Brain % dose/g: 0.086 ± 0.00 % dose/g
  Heart % dose/g: 0.824 ± 0.01 % dose/g
  Intestine % dose/g: 0.471 ± 0.00 % dose/g
  Kidney % dose/g: 4.145 ± 0.64 % dose/g
  Liver % dose/g: 5.555 ± 0.83 % dose/g
  Lung % dose/g: 4.653 ± 0.65 % dose/g
  Muscle % dose/g: 0.085 ± 0.01 % dose/g
  Spleen % dose/g: 4.459 ± 0.09 % dose/g
  Stomach % dose/g: 0.379 ± 0.02 % dose/g
10 min after injection
  Blood % dose/g: 0.495 ± 0.01 % dose/g
  Bone % dose/g: 0.3 ± 0.05 % dose/g
  Brain % dose/g: 0.041 ± 0.00 % dose/g
  Heart % dose/g: 0.795 ± 0.06 % dose/g
  Intestine % dose/g: 0.704 ± 0.08 % dose/g
  Kidney % dose/g: 4.251 ± 0.02 % dose/g
  Liver % dose/g: 5.795 ± 0.03 % dose/g
  Lung % dose/g: 3.191 ± 0.60 % dose/g
  Muscle % dose/g: 0.121 ± 0.02 % dose/g
  Spleen % dose/g: 7.237 ± 0.88 % dose/g
  Stomach % dose/g: 0.438 ± 0.03 % dose/g
30 min after injection
  Blood % dose/g: 0.285 ± 0.01 % dose/g
  Bone % dose/g: 0.324 ± 0.05 % dose/g
  Brain % dose/g: 0.027 ± 0.00 % dose/g
  Heart % dose/g: 0.513 ± 0.07 % dose/g
  Intestine % dose/g: 1.107 ± 0.31 % dose/g
  Kidney % dose/g: 4.095 ± 0.73 % dose/g
  Liver % dose/g: 5.976 ± 0.49 % dose/g
  Lung % dose/g: 2.089 ± 0.16 % dose/g
  Muscle % dose/g: 0.106 ± 0.00 % dose/g
  Spleen % dose/g: 5.884 ± 2.7 % dose/g
  Stomach % dose/g: 0.444 ± 0.09 % dose/g
1 hr after injection
  Blood % dose/g: 0.311 ± 0.03 % dose/g
  Bone % dose/g: 0.398 ± 0.12 % dose/g
  Brain % dose/g: 0.019 ± 0.00 % dose/g
  Heart % dose/g: 0.55 ± 0.04 % dose/g
  Intestine % dose/g: 0.896 ± 0.04 % dose/g
  Kidney % dose/g: 4.779 ± 0.21 % dose/g
  Liver % dose/g: 5.116 ± 0.00 % dose/g
  Lung % dose/g: 1.586 ± 0.16 % dose/g
  Muscle % dose/g: 0.302 ± 0.39 % dose/g
  Spleen % dose/g: 6.711 ± 1.27 % dose/g
  Stomach % dose/g: 0.625 ± 0.34 % dose/g
2 hr after injection
  Blood % dose/g: 0.22 ± 0.05 % dose/g
  Bone % dose/g: 0.347 ± 0.01 % dose/g
  Brain % dose/g: 0.025 ± 0.00 % dose/g
  Heart % dose/g: 0.603 ± 0.05 % dose/g
  Intestine % dose/g: 0.977 ± 0.42 % dose/g
  Kidney % dose/g: 5.327 ± 0.52 % dose/g
  Liver % dose/g: 3.524 ± 0.53 % dose/g
  Lung % dose/g: 1.716 ± 0.23 % dose/g
  Muscle % dose/g: 0.111 ± 0.01 % dose/g
  Spleen % dose/g: 4.747 ± 1.78 % dose/g
  Stomach % dose/g: 0.776 ± 0.07 % dose/g
4 hr after injection
  Blood % dose/g: 0.137 ± 0.02 % dose/g
  Bone % dose/g: 0.264 ± 0.10 % dose/g
  Brain % dose/g: 0.021 ± 0.00 % dose/g
  Heart % dose/g: 0.382 ± 0.04 % dose/g
  Intestine % dose/g: 0.906 ± 0.24 % dose/g
  Kidney % dose/g: 4.282 ± 0.67 % dose/g
  Liver % dose/g: 2.604 ± 0.25 % dose/g
  Lung % dose/g: 1.08 ± 0.16 % dose/g
  Muscle % dose/g: 0.077 ± 0.01 % dose/g
  Spleen % dose/g: 6.294 ± 1.29 % dose/g
  Stomach % dose/g: 0.719 ± 0.18 % dose/g
